Measurements as given in PubChem BioAssay AID330 (DTP/NCI, 2004).
Values joined by “and” are separate entries in the source; they are usually repeats but may differ in a detail not shown here. Equal values may be shown once. Inconclusive results and toxic doses are left out.

Test system: P388 leukemia ip, CD2F1 mice, survival T/C
Assay: NCI In Vivo Anticancer Drug Screen. Data for tumor model P388 Leukemia (intraperitoneal) in CD2F1 (CDF1) mice
Details: endpoint: median survival time, higher = longer survival
Summary of the method: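 Mice carrying the transplanted tumor received test compound or vehicle. Survival was recorded in each group, and the value is the treated-group measurement divided by that of the vehicle-treated control group.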

[1] = dose: 50.0 mg/kg/injection, schedule: Q01DX005 (ip), vehicle: Klucel (hydroxypropylcellulose) (HPC)
[2] = dose: 100.0 mg/kg/injection, schedule: Q01DX005 (ip), vehicle: Klucel (hydroxypropylcellulose) (HPC)
[3] = dose: 200.0 mg/kg/injection, schedule: Q01DX005 (ip), vehicle: Klucel (hydroxypropylcellulose) (HPC)
[4] = dose: 60.0 mg/kg/injection, schedule: Q01DX005 (ip), vehicle: saline with Tween-80
[5] = dose: 120.0 mg/kg/injection, schedule: Q01DX005 (ip), vehicle: saline with Tween-80
[6] = dose: 240.0 mg/kg/injection, schedule: Q01DX005 (ip), vehicle: saline with Tween-80
[7] = dose: 100.0 mg/kg/injection, schedule: Q01DX009 (ip), vehicle: saline with Tween-80
[8] = dose: 200.0 mg/kg/injection, schedule: Q01DX009 (ip), vehicle: saline with Tween-80
[9] = dose: 400.0 mg/kg/injection, schedule: Q01DX009 (ip), vehicle: saline with Tween-80
[10] = dose: 50.0 mg/kg/injection, schedule: Q01DX009 (ip), vehicle: saline with Tween-80

In the case of `CCN1COc2ccc3ccc4c(c3c2C1)CN(CC)CO4`, the T/C [1] is reported as 101 % of control, the T/C [2] is reported as 101 % of control and the T/C [3] is reported as 102 % of control.
`CC(=O)Nc1ncc(Sc2ccc([N+](=O)[O-])cc2)s1` was tested, and the T/C (dose: 1.56 mg/kg/injection, schedule: Q04DX003 (ip), vehicle: saline) was 100 % of control, the T/C (dose: 3.13 mg/kg/injection, schedule: Q04DX003 (ip), vehicle: saline) was 99 % of control and the T/C (dose: 6.25 mg/kg/injection, schedule: Q04DX003 (ip), vehicle: saline) was 98 % of control. The T/C (dose: 12.5 mg/kg/injection, schedule: Q04DX003 (ip), vehicle: saline) was 97 % of control.
With `Cc1ccccc1OCC1COCN(C(C)(C)C)CO1` (stereo not given) the T/C [4] was 100 % of control, the T/C [5] was 107 % of control and the T/C [6] was 102 % of control.
`COc1cc(C)c(C(CC(=O)O)CC(=O)N(CCCl)CCCl)cc1C(C)C` (stereo not given) was tested, and the T/C (dose: 100.0 mg/kg/injection, schedule: Q01DX003 (ip), vehicle: saline) was 102 % of control, the T/C (dose: 200.0 mg/kg/injection, schedule: Q01DX003 (ip), vehicle: saline) was 100 % of control and the T/C (dose: 400.0 mg/kg/injection, schedule: Q01DX003 (ip), vehicle: saline) was 100 % of control.
In the case of `CN1CCc2[nH]nc(-c3n[nH]c4c3CN(C)CC4)c2C1`, the T/C (dose: 60.0 mg/kg/injection, schedule: Q01DX005 (ip), vehicle: saline) is reported as 100 % of control, the T/C (dose: 120.0 mg/kg/injection, schedule: Q01DX005 (ip), vehicle: saline) is reported as 86 % of control and the T/C (dose: 240.0 mg/kg/injection, schedule: Q01DX005 (ip), vehicle: saline) is reported as 93 % of control.
In the case of `Cn1ccnc1CC(C)(O)c1ccccc1` (stereo not given), the T/C [4] is reported as 103 % of control, the T/C [5] is reported as 104 % of control and the T/C [6] is reported as 108 % of control.
In the case of `COC(=O)C1C2C(C)CC3(CC12C)OCCO3` (stereo not given), the T/C [7] is reported as 91 % of control, the T/C [8] is reported as 91 % of control and the T/C [9] is reported as 91 % of control.
For `CSc1nc(Cl)c2cn[nH]c2n1`, the T/C (dose: 100.0 mg/kg/injection, schedule: Q04DX002 (ip), vehicle: water) was 116 % of control and the T/C (dose: 200.0 mg/kg/injection, schedule: Q04DX002 (ip), vehicle: water) was 109 % of control.
For `O=C(NCc1ccc(S(=O)(=O)F)cc1)Oc1ccc([N+](=O)[O-])cc1`, the T/C (dose: 7.5 mg/kg/injection, schedule: Q01DX005 (ip), vehicle: saline with Tween-80) was 102 % of control, the T/C (dose: 15.0 mg/kg/injection, schedule: Q01DX005 (ip), vehicle: saline with Tween-80) was 96 % of control and the T/C (dose: 30.0 mg/kg/injection, schedule: Q01DX005 (ip), vehicle: saline with Tween-80) was 99 % of control. For the same molecule, the T/C [4] was 99 % of control and 112 % of control.
With `C[C@@H](CN1CC(=O)NC(=O)C1)N1CC(=O)NC(=O)C1` the T/C (dose: 0.06 mg/kg/injection, schedule: Q01DX009 (ip), vehicle: Klucel (hydroxypropylcellulose) (HPC)) was 108 % of control, the T/C (dose: 0.12 mg/kg/injection, schedule: Q01DX009 (ip), vehicle: Klucel (hydroxypropylcellulose) (HPC)) was 101 % of control and the T/C (dose: 0.25 mg/kg/injection, schedule: Q01DX009 (ip), vehicle: Klucel (hydroxypropylcellulose) (HPC)) was 111 % of control. The T/C (dose: 0.5 mg/kg/injection, schedule: Q01DX009 (ip), vehicle: Klucel (hydroxypropylcellulose) (HPC)) was 115 % of control, the T/C (dose: 1.0 mg/kg/injection, schedule: Q01DX009 (ip), vehicle: Klucel (hydroxypropylcellulose) (HPC)) was 121 % of control and the T/C (dose: 4.0 mg/kg/injection, schedule: Q01DX009 (ip), vehicle: Klucel (hydroxypropylcellulose) (HPC)) was 154 % of control. The T/C (dose: 8.0 mg/kg/injection, schedule: Q01DX009 (ip), vehicle: Klucel (hydroxypropylcellulose) (HPC)) was 159 % of control, the T/C (dose: 16.0 mg/kg/injection, schedule: Q01DX005 (iv), vehicle: suspension in saline) was 117 % of control and the T/C (dose: 16.0 mg/kg/injection, schedule: Q01DX009 (ip), vehicle: Klucel (hydroxypropylcellulose) (HPC)) was 187 % of control. The T/C (dose: 25.0 mg/kg/injection, schedule: Q01DX009 (ip), vehicle: Klucel (hydroxypropylcellulose) (HPC)) was 178 % of control, the T/C (dose: 32.0 mg/kg/injection, schedule: Q01DX005 (iv), vehicle: suspension in saline) was 119 % of control and the T/C (dose: 32.0 mg/kg/injection, schedule: Q01DX009 (ip), vehicle: Klucel (hydroxypropylcellulose) (HPC)) was 218 % of control. For the same molecule, the T/C (dose: 50.0 mg/kg/injection, schedule: Q01DX009 (ip), vehicle: Klucel (hydroxypropylcellulose) (HPC)) was 166 % of control and 221 % of control, the T/C (dose: 64.0 mg/kg/injection, schedule: Q01DX009 (ip), vehicle: Klucel (hydroxypropylcellulose) (HPC)) was 218 % of control and the T/C (dose: 100.0 mg/kg/injection, schedule: Q01DX009 (ip), vehicle: Klucel (hydroxypropylcellulose) (HPC)) was 200 % of control. For the same molecule, the T/C (dose: 128.0 mg/kg/injection, schedule: Q01DX005 (ip), vehicle: suspension in saline) was 161 % of control and 177 % of control, the T/C (dose: 128.0 mg/kg/injection, schedule: Q01DX009 (ip), vehicle: Klucel (hydroxypropylcellulose) (HPC)) was 229 % of control and the T/C (dose: 200.0 mg/kg/injection, schedule: Q01DX009 (ip), vehicle: Klucel (hydroxypropylcellulose) (HPC)) was 113 % of control and 92 % of control. The T/C (dose: 256.0 mg/kg/injection, schedule: Q01DX001 (ip), vehicle: Klucel (hydroxypropylcellulose) (HPC)) was 97 % of control, the T/C (dose: 256.0 mg/kg/injection, schedule: Q01DX005 (ip), vehicle: suspension in saline) was 194 % of control and 208 % of control and the T/C (dose: 256.0 mg/kg/injection, schedule: Q01DX005 (iv), vehicle: suspension in saline) was 171 % of control and 180 % of control. For the same molecule, the T/C (dose: 400.0 mg/kg/injection, schedule: Q01DX009 (ip), vehicle: Klucel (hydroxypropylcellulose) (HPC)) was 92 % of control, the T/C (dose: 512.0 mg/kg/injection, schedule: Q01DX001 (ip), vehicle: Klucel (hydroxypropylcellulose) (HPC)) was 122 % of control and the T/C (dose: 512.0 mg/kg/injection, schedule: Q01DX005 (ip), vehicle: suspension in saline) was 177 % of control. The T/C (dose: 512.0 mg/kg/injection, schedule: Q01DX005 (iv), vehicle: suspension in saline) was 171 % of control, the T/C (dose: 600.0 mg/kg/injection, schedule: Q04DX003 (ip), vehicle: saline) was 205 % of control and the T/C (dose: 2048.0 mg/kg/injection, schedule: Q01DX001 (ip), vehicle: Klucel (hydroxypropylcellulose) (HPC)) was 159 % of control.
`C/C([O-])=C(/c1nc(-c2ccc([N+](=O)[O-])o2)no1)[n+]1cc(C)ccc1C` was tested, and the T/C (dose: 6.25 mg/kg/injection, schedule: Q01DX009 (ip), vehicle: saline with Tween-80) was 92 % of control, the T/C (dose: 12.5 mg/kg/injection, schedule: Q01DX009 (ip), vehicle: saline with Tween-80) was 94 % of control and the T/C (dose: 25.0 mg/kg/injection, schedule: Q01DX009 (ip), vehicle: saline with Tween-80) was 97 % of control. For the same molecule, the T/C [10] was 94 % of control.
With `Cc1ccccc1N1CCN(c2ccccc2C)C1=C1N(c2ccccc2C)CCN1c1ccccc1C` the T/C (dose: 85.0 micrograms/kg/injection, schedule: Q01DX009 (ip), vehicle: DMSO) was 101 % of control, the T/C (dose: 190.0 micrograms/kg/injection, schedule: Q01DX009 (ip), vehicle: DMSO) was 93 % of control and the T/C (dose: 380.0 micrograms/kg/injection, schedule: Q01DX009 (ip), vehicle: DMSO) was 93 % of control.
With `COc1ccc(-c2cc(-c3ccccc3)c(-c3ccccc3)nn2)cc1` the T/C [10] was 96 % of control, the T/C [7] was 101 % of control and the T/C [8] was 96 % of control.
`COC(CNC(=O)Nc1cccnc1)[CH2][Hg][Cl]` (stereo not given) was tested, and the T/C (dose: 25.0 mg/kg/injection, schedule: Q04DX003 (ip), vehicle: saline with Tween-80) was 91 % of control and the T/C (dose: 50.0 mg/kg/injection, schedule: Q04DX003 (ip), vehicle: saline with Tween-80) was 116 % of control.
For `CCCCCCCCCOCC(COP(=O)([O-])OCC[N+](C)(C)C)OC` (stereo not given), the T/C (dose: 50.0 mg/kg/injection, schedule: Q01DX005 (ip), vehicle: saline) was 99 % of control and the T/C (dose: 100.0 mg/kg/injection, schedule: Q01DX005 (ip), vehicle: saline) was 103 % of control.
In the case of `CC12C=C(C(=O)c3ccccc3)C(CC1)C2(C)C` (stereo not given), the T/C [7] is reported as 100 % of control, the T/C [8] is reported as 95 % of control and the T/C [9] is reported as 90 % of control.
With `CC(C)c1c(O)c(O)c2c(c1O)C(=O)C(O)=C1C(C)(C)CCC[C@@]12C` the T/C (dose: 12.5 mg/kg/injection, schedule: Q01DX005 (ip), vehicle: Klucel (hydroxypropylcellulose) (HPC)) was 98 % of control, the T/C (dose: 25.0 mg/kg/injection, schedule: Q01DX005 (ip), vehicle: Klucel (hydroxypropylcellulose) (HPC)) was 94 % of control and the T/C [1] was 102 % of control. For the same molecule, the T/C [2] was 100 % of control and the T/C [3] was 109 % of control.
For `CCOC(C)(OCC)N(C)C` (tested in a mixture with another compound), the T/C (dose: 35.5 mg/kg/injection, schedule: Q01DX005 (ip), vehicle: saline with Tween-80) was 101 % of control, the T/C (dose: 71.0 mg/kg/injection, schedule: Q01DX005 (ip), vehicle: saline with Tween-80) was 102 % of control and the T/C (dose: 142.0 mg/kg/injection, schedule: Q01DX005 (ip), vehicle: saline with Tween-80) was 118 % of control.
